According to the NIST ThermoML archive (doi:10.1016/j.jct.2015.07.025):
Where “and” joins values, the source holds several entries; their conditions need not be identical. Equal entries are not always repeated. ± gives the expanded uncertainty stated by the source.

Key:
[1] = for Normal melting temperature: Crystal, DTA; for vapor or sublimation pressure: Liquid, Transpiration method
[2] = Molar enthalpy of transition or fusion; conditions: Crystal; DSC

SMILES: Cc1cc(C)c(C#N)c(C)c1 [2,4,6-trimethylbenzonitrile]
- Normal melting temperature [1]: 52.4 ± 1.1 °C
- Molar enthalpy of transition or fusion [2]: 3.7 ± 0.12 kcal/mol

SMILES: Cc1ccccc1C#N [2-methylbenzonitrile]
- vapor or sublimation pressure ([1]; 287.4 K): 0.02064 ± 0.0014 kPa
- vapor or sublimation pressure ([1]; 289.2 K): 0.02389 ± 0.0015 kPa
- vapor or sublimation pressure ([1]; 290.3 K): 0.02582 ± 0.0017 kPa
- vapor or sublimation pressure ([1]; 292.4 K): 0.03043 ± 0.002 kPa
- vapor or sublimation pressure ([1]; 296.3 K): 0.04075 ± 0.0026 kPa
- vapor or sublimation pressure ([1]; 298.1 K): 0.0467 ± 0.003 kPa
- vapor or sublimation pressure ([1]; 300.7 K): 0.05531 ± 0.0035 kPa
- vapor or sublimation pressure ([1]; 305.1 K): 0.07684 ± 0.0049 kPa
- vapor or sublimation pressure ([1]; 308.2 K): 0.0961 ± 0.0061 kPa
- vapor or sublimation pressure ([1]; 311 K): 0.1162 ± 0.0073 kPa
- vapor or sublimation pressure ([1]; 312 K): 0.1257 ± 0.0079 kPa and 0.1248 ± 0.0079 kPa
- vapor or sublimation pressure ([1]; 314.9 K): 0.1494 ± 0.0094 kPa
- vapor or sublimation pressure ([1]; 316.1 K): 0.1625 ± 0.01 kPa
- vapor or sublimation pressure ([1]; 318.1 K): 0.1865 ± 0.012 kPa
- vapor or sublimation pressure ([1]; 321.1 K): 0.2216 ± 0.014 kPa
- vapor or sublimation pressure ([1]; 322.2 K): 0.2425 ± 0.015 kPa
- vapor or sublimation pressure ([1]; 324.2 K): 0.2729 ± 0.017 kPa

SMILES: Cc1cccc(C#N)c1 [3-cyanotoluene]
- vapor or sublimation pressure ([1]; 279.8 K): 0.0072 ± 0.0005 kPa
- vapor or sublimation pressure ([1]; 281.3 K): 0.00829 ± 0.00057 kPa
- vapor or sublimation pressure ([1]; 283.7 K): 0.01033 ± 0.00069 kPa
- vapor or sublimation pressure ([1]; 285.7 K): 0.01206 ± 0.00081 kPa
- vapor or sublimation pressure ([1]; 288.3 K): 0.01513 ± 0.001 kPa
- vapor or sublimation pressure ([1]; 290.3 K): 0.01801 ± 0.0012 kPa
- vapor or sublimation pressure ([1]; 292.4 K): 0.02154 ± 0.0014 kPa
- vapor or sublimation pressure ([1]; 294.3 K): 0.02516 ± 0.0016 kPa
- vapor or sublimation pressure ([1]; 297.2 K): 0.03103 ± 0.002 kPa
- vapor or sublimation pressure ([1]; 300 K): 0.03937 ± 0.0025 kPa
- vapor or sublimation pressure ([1]; 302.1 K): 0.04606 ± 0.0029 kPa
- vapor or sublimation pressure ([1]; 304.1 K): 0.05317 ± 0.0034 kPa
- vapor or sublimation pressure ([1]; 307.7 K): 0.06905 ± 0.0044 kPa
- vapor or sublimation pressure ([1]; 309.2 K): 0.0755 ± 0.0048 kPa
- vapor or sublimation pressure ([1]; 310.1 K): 0.08291 ± 0.0052 kPa
- vapor or sublimation pressure ([1]; 312 K): 0.09159 ± 0.0058 kPa
- vapor or sublimation pressure ([1]; 313.7 K): 0.1049 ± 0.0066 kPa

SMILES: Cc1ccc(C#N)cc1 [4-cyanotoluene]
- vapor or sublimation pressure ([1]; 302.1 K): 0.03154 ± 0.002 kPa
- vapor or sublimation pressure ([1]; 303.2 K): 0.03377 ± 0.0022 kPa
- vapor or sublimation pressure ([1]; 305.3 K): 0.04002 ± 0.0026 kPa
- vapor or sublimation pressure ([1]; 309.1 K): 0.05079 ± 0.0032 kPa
- vapor or sublimation pressure ([1]; 311 K): 0.06008 ± 0.0038 kPa
- vapor or sublimation pressure ([1]; 313.1 K): 0.06747 ± 0.0043 kPa
- vapor or sublimation pressure ([1]; 315 K): 0.07922 ± 0.005 kPa
- vapor or sublimation pressure ([1]; 319.1 K): 0.09993 ± 0.0063 kPa
- vapor or sublimation pressure ([1]; 320.9 K): 0.1159 ± 0.0073 kPa
- vapor or sublimation pressure ([1]; 322.9 K): 0.1303 ± 0.0081 kPa
- vapor or sublimation pressure ([1]; 325 K): 0.1463 ± 0.0092 kPa and 0.1458 ± 0.0092 kPa
- vapor or sublimation pressure ([1]; 329 K): 0.1856 ± 0.012 kPa
- vapor or sublimation pressure ([1]; 331 K): 0.2118 ± 0.013 kPa
- vapor or sublimation pressure ([1]; 332.8 K): 0.2374 ± 0.015 kPa
- vapor or sublimation pressure ([1]; 334.9 K): 0.2629 ± 0.016 kPa
- Normal melting temperature [1]: 26.2 ± 1.1 °C
- Molar enthalpy of transition or fusion [2]: 3.85 ± 0.12 kcal/mol
